According to publication PMC4205289, “Triptolide inhibits human immunodeficiency virus type 1 replication by promoting proteasomal degradation of Tat protein” (Retrovirology, 2014):
Where two headings read alike, the source gives them in different places.

Experiments:
Format in all cases: cell-based
HIV-1 LAI = test: PBMC antiviral assay, p24 ELISA; settings: for EC50: Human immunodeficiency virus 1, PBMC, 144 h, p24, day 6 post-infection; for selectivity ratio at 6 days: human, read-out: SI (selective index, CC50/EC50)
HIV-1 BaL = test: PBMC antiviral assay, p24 ELISA; settings: for EC50: Human immunodeficiency virus 1, BAL, PBMC, 144 h, p24, day 6 post-infection; for selectivity ratio at 6 days: human, read-out: SI (selective index, CC50/EC50)
[1] = test system: HIV-1 molecular clone pNL4-3.Luc.R-E-; test: Transient gene expression assay, pNL4-3.Luc.R-E- transfected into Jurkat cells; settings: 24 h, 118-D-24 50 μM, flavopiridol 20 nM, triptolide 0.2 ~ 5 nM
Method: Figure 3 Triptolide inhibits HIV-1 transcription. (A) Time-of-addition analysis. TZM-bl cells were infected with HIV-1 (MOI = 0.5, strain NL4-3), and the virus inoculum was removed after 1 h of absorption. Test compounds (dextran sulfate at 10 μg/mL, zidovudine at 1 μM and triptolide at 5 nM) were added at the indicated time points after infection. Reporter signal was monitored at 48 h post-infection as a measure of viral replication. (B) The effect of triptolide on HIV-1 proviral DNA formation. Jurkat cells were infected with HIV-1 (MOI = 0.5, strain NL4-3) in the presence of the test compounds (INI 118-D-24, 50 μM; flavopiridol, 20 nM; and triptolide, 5 nM). Proviral DNA synthesis was determined by nested PCR analysis at 12 h post-infection. (C) The effect of triptolide on HIV-1 mRNA synthesis. Jurkat cells were infected with HIV-1(MOI = 0.5, strain NL4-3) in the presence of the test compounds (INI 118-D-24, 50 μM; flavopiridol, 20 nM; triptolide, 5 nM). Viral mRNA (the Gag region) content was determined by reverse-transcription PCR analysis 12 h post-infection. (D) Inhibition of luciferase expression encoded in pNL4-3.Luc.R-E- by tiptolide. […]
To further confirm that triptolide interferes with HIV-1 transcription, a transient gene expression assay was performed. […] At 24 h after transfection, viral gene transcription (indicated by luciferase activity) was determined. […]

## CC(C)[C@]12O[C@H]1[C@@H]1O[C@]13[C@]1(O[C@H]1C[C@H]1C4=C(CC[C@@]13C)C(=O)OC4)[C@@H]2O [triptolide]
HIV-1 LAI; PBMC donor A
  EC50: 1.5 nM
  selectivity ratio at 6 days: 8.4
HIV-1 LAI; PBMC donor B
  EC50: 1.2 nM
  selectivity ratio at 6 days: 12.8
HIV-1 LAI; PBMC donor C
  EC50: 1.5 nM
  selectivity ratio at 6 days: 7.5
HIV-1 BaL; PBMC donor A
  EC50: 1.4 nM
  selectivity ratio at 6 days: 9
HIV-1 BaL; PBMC donor B
  EC50: 1.6 nM
  selectivity ratio at 6 days: 9.6
HIV-1 BaL; PBMC donor C
  EC50: 1 nM
  selectivity ratio at 6 days: 11.2
[1]
  effect on luciferase expression from transfected pNL4-3.Luc.R-E-: inhibited reporter expression in a dose-dependent manner
